Molecular target: T1, Arabidopsis ABAR/CHLH (H subunit of Mg-chelatase) (Arabidopsis thaliana, UniProt Q9FNB0)
T1 construct: 6xHis; made in house; host or cells: Pichia methanolica (Pichia Methanolica Expression kit, Invitrogen)
T1 sequence (Q9FNB0 50-1381): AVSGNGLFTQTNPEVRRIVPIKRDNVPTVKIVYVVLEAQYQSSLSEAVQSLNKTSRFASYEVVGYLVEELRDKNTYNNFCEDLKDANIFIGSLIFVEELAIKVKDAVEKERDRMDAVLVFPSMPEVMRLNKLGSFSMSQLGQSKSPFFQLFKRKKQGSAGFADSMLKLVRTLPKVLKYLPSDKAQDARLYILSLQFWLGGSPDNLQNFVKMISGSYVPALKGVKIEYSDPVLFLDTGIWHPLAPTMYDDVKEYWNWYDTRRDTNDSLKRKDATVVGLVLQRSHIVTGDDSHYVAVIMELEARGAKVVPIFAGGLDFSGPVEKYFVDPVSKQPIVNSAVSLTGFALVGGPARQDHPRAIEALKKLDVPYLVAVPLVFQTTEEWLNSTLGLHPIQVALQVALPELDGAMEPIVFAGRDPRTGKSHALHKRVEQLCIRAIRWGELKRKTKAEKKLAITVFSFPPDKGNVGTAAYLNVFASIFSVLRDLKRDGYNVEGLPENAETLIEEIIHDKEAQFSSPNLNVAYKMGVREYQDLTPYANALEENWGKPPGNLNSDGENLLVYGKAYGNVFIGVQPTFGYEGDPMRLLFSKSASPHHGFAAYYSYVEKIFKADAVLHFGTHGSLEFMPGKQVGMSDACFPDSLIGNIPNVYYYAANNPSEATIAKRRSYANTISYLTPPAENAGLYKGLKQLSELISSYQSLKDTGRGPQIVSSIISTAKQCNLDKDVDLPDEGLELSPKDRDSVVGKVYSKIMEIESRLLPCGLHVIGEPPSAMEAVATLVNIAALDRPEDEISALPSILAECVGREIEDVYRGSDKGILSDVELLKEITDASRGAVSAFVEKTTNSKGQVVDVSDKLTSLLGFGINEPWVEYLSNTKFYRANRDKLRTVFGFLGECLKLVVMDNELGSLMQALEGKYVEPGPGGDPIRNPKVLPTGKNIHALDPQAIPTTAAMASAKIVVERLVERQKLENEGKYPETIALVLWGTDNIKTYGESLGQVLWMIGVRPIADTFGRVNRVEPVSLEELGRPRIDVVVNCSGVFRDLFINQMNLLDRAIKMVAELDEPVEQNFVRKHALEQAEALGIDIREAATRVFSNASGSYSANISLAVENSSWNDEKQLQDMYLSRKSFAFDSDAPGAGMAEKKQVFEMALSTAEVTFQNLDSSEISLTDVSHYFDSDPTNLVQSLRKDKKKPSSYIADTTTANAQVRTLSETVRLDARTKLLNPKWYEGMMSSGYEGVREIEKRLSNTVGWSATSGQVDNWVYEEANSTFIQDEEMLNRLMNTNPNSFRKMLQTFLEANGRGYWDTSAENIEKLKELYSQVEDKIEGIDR
Test: ABA binding assay with purified yeast-expressed ABAR/CHLH
Method: Full-length ABAR/CHLH coding sequence was PCR-amplified with forward primer 5′-[…]-3′ (SEQ ID NO:30) and reverse primer 5′-[…]-3′ (SEQ ID NO:31). The recombinant ABAR/CHLH was expressed in yeast as a fusion protein with a 6×His (SEQ ID NO:32) tag by using Pichia Methanolica Expression kit (Invitrogen) and the fusion protein was affinity-purified according to manufacturer's instructions.
The ABA-binding activity of ABAR was assayed according to the previously described procedures (Zhang, D. P. et al., Plant physiol. 128:714-725 (2002)) with modifications. The binding medium (medium A) contained 50 mM Tris-HCl (pH 7.0), 2 mM MgCl2, 1 mM CaCl2, and 250 mM mannitol. The medium for extracting the Arabidopsis natural ABAR/CHLH protein (medium B) was the medium A supplemented with 2 mM 1,4-dithiothreitol (DTT), 1 mM phenylmethyl sulfonyl fluoride (PMSF), […] leupeptin, and […] pepstin A but minus 250 mM mannitol. [^3H](+)ABA (American Radiolabeled Chemicals, 2.37×10^12 Bq mmol^−1, purity 98.4%) at 30 nM, or at a step gradient of concentrations from 0 to 70 nM (when analyzing ABA binding kinetics, see FIG. 1a, d1), together with 2 μg purified yeast-expressed ABAR/CHLH protein or 50 μg proteins of the crude extracts from two-week-old Arabidopsis seedlings, was added into the medium A. The total volume for the binding assays was adjusted to 200 μl. The mixtures were incubated at 25° C. for 30 min, and then quickly placed on ice. Following the addition of 100 μl 0.5% (w/v) Dextran T70-coated charcoal (DCC) to remove the free [^3H]ABA by adsorption, the mixtures were maintained on ice for 5 min, and then centrifuged to remove DCC before the radioactivity in the supernatant was counted. The specific binding was determined by the difference between the radioactivity bound to the immuno-purified ABAR protein or crude extracts of Arabidopsis seedlings incubated only with [^3H]ABA (total binding) and radioactivity bound in the presence of 1,000-fold molar excess of unlabeled (+)-ABA (Sigma; non-specific binding. Non-specific binding in all the assays was lower than 10% of the total binding, see FIG. 1a, d1). The unlabeled ABA was added into the incubation medium at the same time with [^3H]ABA. The ABA-binding activity of the crude ABA-binding protein from Arabidopsis seedling was expressed as the number of nanomoles of [^3H]ABA specifically bound per gram of protein, and that of the immuno-purified ABAR protein as the number of moles of [^3H]ABA per mole of protein. The stereo-specificity of the ABA-binding was assayed as described previously (Zhang, D. P. et al., Plant physiol. 128:714-725 (2002)). […] The conditions of incubation were the same as described above (the incubation medium containing 30 nM [^3H]ABA), and the two ABA isomers and (+)-ABA were assayed in the concentrations ranging from 1 to 1000-fold molar excess of [^3H]ABA.

## CC1=CC(=O)CC(C)(C)C1(O)/C=C/C(C)=C\C(=O)O (centres unmarked) [ABA, abscisic acid]
  Kd: 32 nM
Pure yeast-expressed ABAR, Scatchard plot
  maximum binding (Bmax): 1.28 mol ABA per mol of protein

— US20090044291A1, “DROUGHT-RESISTANT PLANTS AND METHOD FOR PRODUCING THE PLANTS” (D-Helix, priority 2006, published 2009)
